Earlier results, collected in patent publication US20250367333A1, “LIPID NANOPARTICLE FOR RADIATION THERAPY, MANUFACTURING METHOD, COMBINATION COMPOSITION, AND KIT” (KABUSHIKI KAISHA TOSHIBA, priority 2024, published 2025).

Settings: radioactive material

SMILES: [At] [astatine]
- half-life: approximately 7 hours
